For this assay, the system named is D54 LucT luciferase reporter counterscreen, luminescence, 24 h. In words: luciferase activators in glycosylation-insensitive reporter cells, dose response, counter-screen for N-linked glycosylation inhibitor project, D54 LucT cells, luminescence, cherry pick (AID 624404). For orientation: A counterscreen serves to expose hits that act by an unwanted route or on another target.

The structures appear in SMILES notation. Results filed as inconclusive are left out. Activity calls are given as the source filed them.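 How the source made its calls: active means luciferase signal rise whose fitted curve crosses a set activity limit at or below the top valid tested dose; inconclusive means flat fit with 30 to 70% rise, or poor fit; inactive means signal falling, flat within 30%, or crossing above top dose.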

Our source for the AC35 values is PubChem BioAssay AID624404 (Broad Institute, 2012).

In the case of `NNC(=O)c1ccc2nc(-c3ccc(Br)cc3)cn2c1`, the AC35 was 780 nM.

For the compound `O=C(CCN1C(=O)/C(=C/c2cccs2)SC1=S)N1CCCCC1`, the AC35 was 4530 nM. With `NC(=O)c1cccc(-c2coc3c(C(=O)NCc4ccccc4)cccc23)c1` the figure was 3070 nM.

Consider `Cc1ccc(C(=O)c2coc3c2C(=O)C(=O)c2ccccc2-3)cc1`, for which the AC35 was 4050 nM. In the case of `COc1ccc(C(=O)c2ccc(OC)c(N)c2)cc1N` it was 827 nM; in that of `COc1ccc(NC(=O)C2(C)Cc3c(-c4cccc(C(N)=O)c4)ccnc3O2)cc1` (stereo not given), 3620 nM; in that of `CCN(c1ccccc1)S(=O)(=O)c1ccc(N)c(OC)c1`, 1820 nM. Regarding `CC(NC(=O)c1ccc2ccccc2n1)c1ccc(S(N)(=O)=O)cc1` (stereo not given), the AC35 is 977 nM.

On to `Cc1nnc2ccc(-c3ccc(NC(=O)c4ccco4)cc3)nn12`, for which the AC35 was 644 nM. In the case of `Cc1ccc2[nH]c(=O)c3cc(C(=O)NC(C)C)sc3c2c1` it was 2390 nM; in that of `CC(=O)Nc1ccc(-c2ccnc3c2CC(C(=O)NCc2cccc(Cl)c2)O3)cc1` (stereo not given), 57.6 nM; in that of `COc1cc2c(cc1OC)C(c1ccccc1)N(C(=O)c1ccccc1F)CC2` (stereo not given), 608 nM.

In the case of `Cn1c(SCC(=O)c2ccc(F)cc2)ncc(C(=O)Nc2ccccc2)c1=O`, the AC35 was 1690 nM. With `Cc1cccc(/C=N\Nc2cn[nH]c(=O)c2Cl)c1` the figure was 163 nM; with `Cn1c(=O)[nH]c(=O)c2c1nc(SCC(N)=O)n2Cc1cccc(Br)c1`, 421 nM; with `CCOc1cc(C)nc(NCc2ccccc2)n1`, 5190 nM.

Take `Cc1ccc(NCCN(C)C)c2c(=O)c3cc(O)ccc3sc12`: the AC35 was 5710 nM.

With `COc1cccc(NC(=O)CCCOc2cc(=O)n(C)c3ccccc23)c1`, the AC35 is 4630 nM. With `COCCNC(=O)c1cc(-c2cccs2)on1` the figure was 1020 nM; with `C[C@H](CO)N1C[C@H](C)[C@@H](CN(C)S(=O)(=O)c2cccs2)Oc2c(NC(=O)Cc3ccccc3)cccc2C1=O`, 2960 nM; with `Cc1nn(-c2ccccc2)c2c1CC(=O)Nc1ccccc1-2`, 3160 nM. With `CCc1ccc(C(=O)Nc2ccc3c(c2)n(C)c(=O)n3C)cc1` the figure was 2630 nM; with `Cc1cccn2c(=O)c3cc(C(=O)NC4CCCCC4)n(C)c3nc12`, 7540 nM. With `COc1ccccc1NC(=O)c1cnc(SCC(=O)NCC2CCCO2)n(C)c1=O` (stereo not given) the figure was 4930 nM.

On to `COc1cc(/C=C/C(=O)OCC(=O)NCc2ccc(F)cc2)ccc1O`, for which the AC35 was 88.1 nM.

Consider `O=C1c2cccc3c([N+](=O)[O-])ccc(c23)C(=O)N1CC1CCCO1` (stereo not given), for which the AC35 is 315 nM.

Consider `O=C(c1ccc2ncsc2c1)N1CCN(c2cccc(C(F)(F)F)c2)CC1`, for which the AC35 was 629 nM.

With `COc1cc(C(=O)NC2CCN(C)CC2)ccc1Nc1ncc2c(n1)N(CCc1ccccc1)CCC(=O)N2C`, the AC35 is 172 nM. With `Oc1ccc(C2=NNC(=NCc3ccc4c(c3)OCO4)SC2)c(O)c1` the figure was 3120 nM; with `NC(=O)c1cccc(-c2ccnc3c2CC(C(=O)NCc2ccccc2)O3)c1` (stereo not given), 283 nM. With `Cc1ccnc2nc(C(=O)Nc3cc(Cl)ccc3N3CCOCC3)nn12` the figure was 155 nM. In the case of `Cc1ccc(S(=O)(=O)Nc2ccc3c(c2)n(C)c(=O)n3C)cc1` it was 694 nM; in that of `CC(=O)c1c(C)[nH]c(C(=O)Nc2cccc(S(=O)(=O)N3CCCC3)c2)c1C`, 3950 nM; in that of `COc1ccc([C@@H]2[C@@H]3C(=O)N(C(C)(C)C)C(=O)[C@@H]3[C@]3(Cc4ccccc4)C(=O)N(c4cccc(C)c4)C(=O)N23)cc1`, 843 nM. As to `N#CC1=C(N)Oc2c(c(=O)sc3ccccc23)C1c1cccnc1` (stereo not given), the AC35 is 1260 nM.

`COc1cc(OC)c(N2CC(C(=O)Nc3cc(Cl)ccc3N3CCOCC3)CC2=O)cc1Cl` (stereo not given): the AC35 was 1260 nM. As for `Cc1cccc(Nc2nc(N)nc(-c3oc4ccccc4c3C)n2)c1`, the AC35 is 1570 nM. In the case of `Cc1ccc2c(c1)cc(CN(C(=O)N1CCOCC1)C1CCCC1)c1nnnn12` it was 2460 nM; in that of `O=C(N/N=C/c1ccco1)c1cc(-c2ccncc2)nc2ccccc12`, 7160 nM; in that of `CC(C)(C)c1ccc(OCC(=O)Nc2ccncc2)c(Br)c1`, 35.6 nM. With `O=C(NCCc1ccccc1)C1c2ccccc2C(=O)N1Cc1cccs1` (stereo not given) the figure was 1400 nM; with `Cc1ccc(S(=O)(=O)C(NC(=O)c2ccccc2)=C(Cl)Cl)cc1`, 4390 nM; with `CCNc1oc(/C=C/c2ccc(OCC)cc2)nc1C#N`, 940 nM.

Turning to `OCCCNc1c2ccccc2nc2ccccc12`, the AC35 is 4900 nM. For `Cc1c2cnccc2c(C)c2c1oc1ccccc12`, the AC35 is 3320 nM. In the case of `COc1cc(NC(=O)CN2c3cccc4cccc(c34)S2(=O)=O)cc(OC)c1OC` it was 7530 nM; in that of `CCOc1cc(-c2c(C#N)c(N)nc3c2CCc2ccccc2-3)ccc1O`, 3850 nM.

In the case of `Cc1ccc(C(=O)NC(=C(Cl)Cl)S(=O)(=O)c2ccc(Cl)cc2)cc1`, the AC35 was 12700 nM. With `COc1ccc(/C=C2\SC(=O)N(CCNC(=O)C3=COCCO3)C2=O)cc1` the figure was 854 nM; with `Cn1cc(C(=O)N/N=C/C(Br)=C/c2ccccc2)ccc1=O`, 3760 nM. With `NS(=O)(=O)c1ccc(NC(=O)c2cccc3cc4ccccc4nc23)cc1` the figure was 6580 nM; with `COc1ccc(/C=C/C(=O)c2ccccc2)cc1COc1ccccc1F`, > 19500 nM (inactive); with `CC(=O)Nc1ccc(CC(=O)NCCC(c2ccccc2)c2ccccc2)cc1`, 7670 nM. With `O=C(/C(=C\c1ccccc1)c1nc2ccccc2[nH]1)c1ccc(Cl)cc1` the figure was 306 nM; with `N#Cc1ccc(-c2cccs2)nc1SCc1cccnc1`, 848 nM. As to `COc1ccccc1N1CC(O)=C(c2nc3ccccc3c(=O)[nH]2)C1=N`, the AC35 is 5720 nM. For the compound `CN(C)CCCN(C(=O)c1ccc(S(=O)(=O)N2CCc3ccccc3C2)cc1)c1nc2ccc(F)cc2s1`, the AC35 was 5390 nM. In the case of `CC(=O)NC(=C(Cl)Cl)S(=O)(=O)c1ccccc1` it was 3670 nM; in that of `O=C(COc1ccc(/C=N/NC(=O)c2cc3ccccc3o2)cc1Br)Nc1ccccc1`, 27 nM; in that of `O=c1cc(-c2ccc(O)cc2)oc2cc(O)c(C3OC(CO)C(O)C(O)C3O)c(O)c12` (stereo not given), 15.1 nM.

In the case of `COc1cc(C(=O)NC2CCN(C)CC2)ccc1Nc1ncc2c(n1)N(C1CCCCC1)CCC(=O)N2C`, the AC35 is 30.5 nM.

For `Nc1ccc(C(=O)Nc2ccccc2N)cc1`, the AC35 is 744 nM. With `CCCCC[C@H](O)/C=C/[C@@H]1[C@@H](C/C=C\CCCC(=O)OC)[C@@H](O)C[C@H]1O` the figure was below 1.2 nM; with `C[C@@]12C(=O)Nc3cc(F)c(F)cc3C(=O)N1[C@H]1c3ccccc3OC[C@@H]1[C@@H]2c1ccccc1`, 746 nM; with `COc1ccc2nc3ccccc3nc2c1NC(=O)c1ccccc1Cl`, 17900 nM. With `CCCNC(=O)c1cc(-c2ccco2)on1` the figure was 903 nM; with `Cc1noc(C)c1COc1ccc(C(=O)NNC(=O)c2ccccc2)cc1`, 271 nM; with `CN(Cc1ccccc1)c1nc2c(c(=O)[nH]c(=O)n2C)n1CCCc1ccccc1`, 909 nM. With `NC(=O)CC(NC(=O)Cc1ccc(Br)cc1)c1ccc(NC2CC3CCC2C3)c([N+](=O)[O-])c1` (stereo not given) the figure was 210 nM; with `CC(=O)Nc1cccc(NC(=O)c2ccccc2OCc2ccccc2)c1`, 3830 nM.

Regarding `CC12CC[C@H]3[C@@H](CCC4(O)C[C@H](O)CCC34/C=N/NC(=O)c3ccccc3O)C1(O)CCC2C1=CC(=O)OC1` (stereo not given in full), the AC35 is 6220 nM.

In the case of `COc1ccc(S(=O)(=O)NCc2ccccn2)cc1NC(=O)c1ccccc1C`, the AC35 was 3110 nM. In the case of `COc1ccc(/C=N/NC(=O)c2ccccc2OCc2ccccc2)c(OC)c1` it was 1600 nM; in that of `CCOC(=O)c1c(NC(C)=O)sc2c(OCCN(CC)CC)c(Br)ccc12`, 7.67 nM. With `CCOC(=O)C1CCN(c2c(N3CCN(Cc4ccccc4)CC3)c(=O)c2=O)CC1` the figure was 1220 nM; with `O=C(c1cccc(Oc2ccccc2)c1)N1CCN(c2ccccn2)CC1`, 2960 nM. In the case of `COc1ccc2oc(-c3ccccc3[N+](=O)[O-])cc(=O)c2c1` it was 174 nM; in that of `Cc1cc(NCCCn2ccnc2)n2nc(C)c(-c3ccccc3)c2n1`, 2290 nM. As for `COc1cc2c(cc1OC)C(c1cccs1)N(C(=S)NC(C)C)CC2` (stereo not given), the AC35 was 85.1 nM. In the case of `COc1ccc(/C=C2\CC/C(=C\c3ccc(OC)c(OC)c3)C2=O)cc1OC` it was 155 nM; in that of `COc1ccc(Cl)cc1/C=C/c1ccc2cccc(O)c2n1`, 22.1 nM. In the case of `CCOC(=O)c1[nH]c(C)c(C(=O)Nc2cc(OC)ccc2OC)c1C` it was 345 nM; in that of `COc1cccc(C(=O)Nc2ncc3c(n2)CC(c2ccc(OC)cc2OC)CC3=O)c1` (stereo not given), 7610 nM. In the case of `CCn1c2ccccc2c2cc(/C=N/NC(=O)c3ccc(O)cc3)ccc21` it was 4490 nM. Regarding `c1ccc(C2=Nn3c(nnc3-c3n[nH]c4c3CCC4)SC2)cc1`, the AC35 is 2250 nM. With `Cc1ccnc(NC(=O)C(Cc2ccccc2)NC(=O)c2ccccc2)c1` (stereo not given) the figure was 335 nM. For the compound `COc1cc(NC(C(=O)Nc2cccc(C(C)=O)c2)c2ccccc2)cc(OC)c1OC` (stereo not given), the AC35 is 5.56 nM. In the case of `Nc1c(C(=O)c2ccccc2)sc2nsc(SCCN3CCOCC3)c12` it was 57.8 nM.

Turning to `COc1ccc2c(c1)[C@H]1[C@H](CO2)[C@H](c2ccccc2)[C@]2(C)C(=O)Nc3cc(C)ccc3C(=O)N12`, the AC35 is 66.8 nM. In the case of `Cc1cccc(NC(=O)c2cnn3ccccc23)c1C`, the AC35 was 532 nM. With `COc1ccc(C(=O)N2CCN(S(=O)(=O)c3ccc(C)cc3C)CC2)cc1S(=O)(=O)N1CCOCC1`, the AC35 was 4790 nM.

On to `Cc1cccn2c(=O)c3cc(C(=O)N4CCC5(CC4)OCCO5)n(C)c3nc12`, for which the AC35 was 310 nM.

In the case of `CN(Cc1ccccc1)c1nc2c(c(=O)n(C)c(=O)n2C)n1CCCc1ccccc1`, the AC35 was 893 nM. With `COC(=O)c1ccc(C)c(NC(=O)CN(c2cc(OC)ccc2OC)S(C)(=O)=O)c1` the figure was 226 nM; with `Cc1cc2cc(CNC(=O)Cc3cccs3)ccc2n1C`, 13600 nM.
